Results taken from patent publication US5892029A, “3-hydroxy-2(1H)-pyridinone chelating agents” (priority 1997, dated 1999).
“Also recorded” adds a separate entry of the source. Like-named read-outs stand apart in the source and are kept apart here.

Columns and labels:
[1] = assay type: in vivo, mice; settings: for body weight / kidney weight / plasma urea N: mean ± SD
Protocol: The test of acute toxicity of these novel ligands was carried out as follows. […] The ligand was dissolved in 0.5 to 1.0 ml of saline at pH 7 to 8. After a period of observation, the mice were killed, selected tissues were removed and fixed for histopathological examination,and unusual findings at autopsy were recorded.

[2] = Promoting excretion of 238Pu(IV) in mice by injected ligands (Table 3); assay type: in vivo; settings: 30 μmol/kg i.p.
Description: (§1) Animal studies were completed using methods detailed in Radiation Protection Dosimetry, 1994, 53, 305: P. W. Durbin et al., "In Vivo Chelation of Am(III), Pu(IV), Np(V) and U(VI) in Mice by TREN-(Me-3,2-HOPO)"; Radiation Protection Dosimetry, 1989, 17, 351: P. W. Durbin et al., "Removal of ^238 Pu(IV) from Mice by Polycatechoylate, -Hydroxamate or -Hydroxypyridinonate Ligands"; Radiation Research, 1984, 99, 85: P. W. Durbin et al., "Specific Sequestering Agents for the Actinides . . . "; Radiation Research, 1984, 99, 106: P. W. Durbin et al., "Removal of Pu and Am from Beagles and Mice . . . "; Radiation Research, 1980, 81, 170: R. D. Lloyd et al., and P. W. Durbin et al., "Specific Sequestering Agents for the Actinides . . . ". The foregoing articles are hereby incorporated by reference.
(§2) Radionuclides used in the animal studies came from a variety of sources. The ^238 Pu(IV) citrate and ^241 Am(III) citrate solutions were prepared for animal injection by 8- to 10-fold dilution with 0.14M NaC1 (pH 4) of concentrated stock solutions (0.08M sodium citrate buffer) that had been held in frozen storage at Lawrence Berkeley Laboratory (hereinafter LBL) for several years. [The ^238 Pu(IV) was originally obtained from D. R. Atherton at the University of Utah Radiobiology Laboratory, Salt Lake City. The ^241 Am(III) solution had been obtained many years earlier from the LBL Actinide Chemistry group.]
The novel chelating agents of the present invention were tested for their effectiveness in promoting excretion of ^238 Pu(IV) in mice by injected ligands as follows. Mice, in groups of five, each received an intravenous injection of 1850 Bq^238 Pu(IV) in 0.2 mL of citrate buffer. One hour later, 30 μmol/kg of ligand was injected intraperitoneally in 0.5 mL of saline. The mice were killed 24 hours after the Pu injection, frozen, and dissected after partial thawing. The ^238 Pu in skeleton, soft tissues, and separated excreta was determined by counting the ^234 U L x-rays. […]

[3] = Promoting excretion of U(VI) in mice by injected ligands (Table 5); assay type: in vivo; settings: 30 μmol/kg i.p. at 3 to 5 min after actinide i.v.
Description: as §1
The ^232 U was obtained from the Isotope Products Laboratory, Burbank, Calif., and ^234,235 U was obtained as U metal from long-held LBL storage. The two U sources were combined and dissolved in 6N HNO3, dried, and redissolved in 0.1N HCl. The daughter radioactivities were removed by elution from a Dowex-50X4 column (22 cm length, 0.7 cm diameter, 1.5 mL min^-1 flow rate) with 3.2N HCl. The U fractions (previously identified by a trial run with ^234,235 U alone) were combined, dried, and redissolved in 0.14M NaCl at pH 5.5.
(§3) One of the novel chelating agents of the present invention, TREN-Me-3,2-HOPO, was also tested for effectiveness in promoting excretion of ^241 AM(III), ^237 Np(V), and ^232 U(VI) by injection into mice, as follows: Mice, in groups of five, each received an intravenous injection of (a) 1100 Bq of ^241 Am(III) in 0.2 mL of citrate buffer, (b) 150 Bq of ^232 UO2 Cl2 plus 3.6 mg of ^235 UO2 Cl2 in 0.2 mL of saline, or (c) 200 Bq of ^237 NpO2 Cl ([…] of ^237 NPO2 Cl) in 0.2 mL of saline. Three to five minutes later, 30 μmol/kg of TREN-Me-3,2-HOPO was injected intraperitoneally in 0.5 mL of saline. The mice were killed 24 hours after the actinide injection, frozen, and dissected after partial thawing. The skeleton, soft tissues, and separated excreta were radioanalyzed by counting the ^241 Am gamma rays, or the alpha particles emitted by ^237 Np or ^232 U (and its ingrowing daughters). Removal of those actinides from mice by injected TREN-Me-3,2-HOPO is summarized in Table 5, which also includes data for mice similarly treated with CaNa3 -DTPA and for actinide-injected controls. […] The structure of Am(III)-TREN-Me-3,2-HOPO is considered to resemble that of the Gd(III) complexes (see Example 20). Complexation of the fraction of Np(V) that is reduced in vivo to Np(IV) is considered to resemble that of Pu(IV). Complexation of U(VI) is considered to take place through binding to UO2^2+.
(§4) ^a Ligands (30 μmol/kg) i.p. at 3 to 5 min after actinide i.v.;

[4] = 30 μmol/kg i.p. at 1 h; reported previously (footnote e); cited from earlier work
[5] = Promoting excretion of 241Am(III) in mice by injected ligands (Table 5); assay type: in vivo; settings: 30 μmol/kg i.p. at 3 to 5 min after actinide i.v.
Description: as §1, §2, §3, §4

[6] = Promoting excretion of 237Np(V) in mice by injected ligands (Table 5); assay type: in vivo; settings: 30 μmol/kg i.p. at 3 to 5 min after actinide i.v.
Description: as §1
The ^237 Np(V) was obtained from J. Bucher of the LBL Actinide Chemistry group as NpO2 Cl in 0.1M HCl. It was diluted to the desired radioactivity concentration in 0.14M NaCl and the pH was adjusted to about 4.5 with NaOH just before use.
as §3, §4

[7] = Gd3+ complex stability in aqueous solution; assay type: binding
[8] = protocol I: 100 μmol/kg × 10 daily i.p., 11 d
[9] = protocol I: 100 μmol/kg × 10 daily i.p., 21 d
[10] = protocol II: 500 μmol/kg × 2 in 8 h i.p., 11 d

Cn1ccc(C(=O)NCCCCNC(=O)c2ccn(C)c(=O)c2O)c(O)c1=O [4-LI-Me-3,2-HOPO, 1,4-bis[(3-hydroxy-1-methyl-2-oxo-1,2-dihydro-pyridin-4-yl)carboxamido]butane]
body weight ([1]; protocol IB: 100 μmol/kg, 5 d): 85 ± 8 percent control | kidney weight ([1]; protocol IB: 100 μmol/kg, 5 d): 190 ± 63 percent control | plasma urea N ([1]; protocol IB: 100 μmol/kg, 5 d): > 2000 percent control | no. of survivors ([1]; protocol IB: 100 μmol/kg, 5 d, of 3 mice): 0 | effectiveness of Pu removal, injected (in words) [2]: as effective or more effective than the hexadentate and octadentate chelating agents

Cn1ccc(C(=O)NCCCCCNC(=O)c2ccn(C)c(=O)c2O)c(O)c1=O [5-LI-Me-3,2-HOPO, 1,5-bis[(3-hydroxy-1-methyl-2-oxo-1,2-dihydro-pyridin-4-yl)carboxamido]pentane]
toxicity / mortality (in words) ([1]; mouse, in vivo): low toxicity | body weight [1, 8]: 102 ± 5 percent control | kidney weight [1, 8]: 109 ± 14 percent control | plasma urea N [1, 8]: 89 ± 1 percent control | no. of survivors ([1]; protocol I: 100 μmol/kg × 10 daily i.p., 11 d, of 5 mice): 5 | body weight [1, 9]: 102 ± 5 percent control | kidney weight [1, 9]: 100 ± 4 percent control | plasma urea N [1, 9]: 101 ± 2 percent control | no. of survivors ([1]; protocol I: 100 μmol/kg × 10 daily i.p., 21 d, of 5 mice): 5 | body weight [1, 10]: 99 ± 3 percent control | kidney weight [1, 10]: 109 ± 9 percent control | plasma urea N [1, 10]: 98 ± 18 percent control | no. of survivors ([1]; protocol II: 500 μmol/kg × 2 in 8 h i.p., 11 d, of 5 (5-LI) or 10 (5-LI-O) mice): 5 | effectiveness of Pu removal, injected (in words) [2]: as effective or more effective than the hexadentate and octadentate chelating agents

O=C(O)CN(CCN(CC(=O)O)CC(=O)O)CCN(CC(=O)O)CC(=O)O [CaNa3 -DTPA, reference compound]
U(VI) in kidneys at 24 h [3]: 17 ± 2.8% of injected actinide | U(VI) in liver at 24 h [3]: 1.0% of injected actinide | U(VI) in skeleton at 24 h [3]: 19 ± 3.0% of injected actinide | U(VI) in whole body at 24 h [3]: 38 ± 0.7% of injected actinide | U(VI) combined excreta ([3]; combined excreta (footnote f)): 62% of injected actinide | 238Pu excreta: feces and GI contents [4]: 5.1% of injected ^238 Pu | 238Pu excreta: urine 0-24 h [4]: 61% of injected ^238 Pu | 238Pu in kidneys at 24 h [4]: 1.1% of injected ^238 Pu | 238Pu in liver at 24 h [4]: 17 ± 4.0% of injected ^238 Pu | 238Pu in skeleton at 24 h [4]: 12 ± 2.3% of injected ^238 Pu | 238Pu in soft tissue at 24 h [4]: 3.5 ± 1.6% of injected ^238 Pu | 238Pu in whole body at 24 h [4]: 33 ± 6.6% of injected ^238 Pu | Am(III) in liver at 24 h [5]: 13 ± 1.5% of injected actinide | Am(III) in skeleton at 24 h [5]: 8.5 ± 0.9% of injected actinide | Am(III) in soft tissue at 24 h [5]: 1.9 ± 0.3% of injected actinide | Am(III) in whole body at 24 h [5]: 24 ± 1.3% of injected actinide | Am(III) excreta: feces and GI contents ([5]; pooled): 8.0% of injected actinide | Am(III) excreta: urine 0-24 h ([5]; pooled): 68% of injected actinide | Am(III) in kidneys at 24 h ([5]; pooled): 0.4% of injected actinide | Np(V) in liver at 24 h [6]: 14 ± 5.7% of injected actinide | Np(V) in skeleton at 24 h [6]: 40 ± 4.4% of injected actinide | Np(V) in soft tissue at 24 h [6]: 3.5 ± 0.9% of injected actinide | Np(V) in whole body at 24 h [6]: 58 ± 8.0% of injected actinide | Np(V) excreta: feces and GI contents ([6]; pooled): 1.5% of injected actinide | Np(V) excreta: urine 0-24 h ([6]; pooled): 40% of injected actinide | Np(V) in kidneys at 24 h ([6]; pooled): 1.3% of injected actinide

CC(=O)N(O)CCCCCNC(=O)CCC(=O)N(O)CCCCCNC(=O)CCC(=O)N(O)CCCCCNC(=O)c1ccn(C)c(=O)c1O [DFO-Me-3,2-HOPO]
238Pu excreta: feces and GI contents [4]: 26.4% of injected ^238 Pu | 238Pu excreta: urine 0-24 h [4]: 21% of injected ^238 Pu | 238Pu in kidneys at 24 h [4]: 3.0% of injected ^238 Pu | 238Pu in liver at 24 h [4]: 13 ± 3.5% of injected ^238 Pu | 238Pu in skeleton at 24 h [4]: 17 ± 2.4% of injected ^238 Pu | 238Pu in soft tissue at 24 h [4]: 19 ± 3.0% of injected ^238 Pu | 238Pu in whole body at 24 h [4]: 53 ± 3.4% of injected ^238 Pu

O=C(NCc1cc(CNC(=O)c2cccc(=O)n2O)cc(CNC(=O)c2cccc(=O)n2O)c1)c1cccc(=O)n1O [ME-(1,2-HOPO)]
238Pu excreta: feces and GI contents [4]: 43% of injected ^238 Pu | 238Pu excreta: urine 0-24 h [4]: 9.6% of injected ^238 Pu | 238Pu in kidneys at 24 h [4]: 1.8% of injected ^238 Pu | 238Pu in liver at 24 h [4]: 18 ± 6.3% of injected ^238 Pu | 238Pu in skeleton at 24 h [4]: 17 ± 2.5% of injected ^238 Pu | 238Pu in soft tissue at 24 h [4]: 10 ± 1.8% of injected ^238 Pu | 238Pu in whole body at 24 h [4]: 47 ± 9.4% of injected ^238 Pu

Gadolinium (III) Ion Complex with N,N,N,-Tris[(3-hydroxy-1-methyl-2-oxo-1,2-dihydropyridin-4-yl)carboxamidoethyl]-amine [Gd(III)-TREN-3,2-HOPO complex]
pM value for Gd^3+ [7]: 19 | formation constant log β110 ([7]; aqueous solution): 20.3 | stability of the complex (in words) ([7]; aqueous solution): very stable in aqueous solution; also recorded: substantially more stable than any of the Gd^3+ MRI agents in current clinical use
